For data set [1], the system named is HCT 116. As to the kind of experiment: Antiproliferative activity assay (WST-8). In kind it is cell-based. The conditions noted are these: Homo sapiens, HCT-116, 96 h. The method, then: Antiproliferative activity assay was carried out as follows. A single suspension of tumor cells was inoculated to the serially diluted 96-well microtestplate. Then the testplate was incubated in the 5% CO2 ambience at 37° C. for 4 days (2-3×10^3 cells/well). The degree of cell growth in a monolayer was measured by using WST-8 (Dojindo, Japan). IC50 values of drugs against tumor cells were calculated as the concentration of drug yielding 50% OD of the control growth.
For orientation: Formazan colour is commonly taken as a measure of viable cells.

Data set [2] can be described thus: Maximum tolerated dose (MTD) by i.v. administration in mice. The conditions noted are these: mouse, in vivo, iv, read-out: maximum tolerated doses (MTD). The method, then: The maximum tolerated doses (MTD) of the following representative compounds
of the present invention were examined by i.v. administration in mice. The respective MTD values of the compounds were 14, 18, 10, 8, 8, 2 and 2 mg/kg.

Setting [3] is: incubated 4 days, WST-8, concentration of drug yielding 50% OD of the control growth, read-out: HCT 116 IC50.

SMILES strings stand for the structures. Like-named read-outs stand apart in the source and are kept apart here.

For the molecule `CCSC(C(C)C(=O)NCCc1cccc(O)c1)C1CCCN1C(=O)CC(OC)C(C(C)CC)N(C)C(=O)C(NC(=O)C(C(C)C)N(C)C)C(C)C` (single isomer, unassigned) [N-(1-{[1-sec-Butyl-4-(2-{1-ethylsulfanyl-2-[2-(3-hydroxy-phenyl)-ethylcarbamoyl]-propyl}-pyrrolidin-1-yl)-2-methoxy-4-oxo-butyl]-methyl-carbamoyl}-2-methyl-propyl)-2-dimethylamino-3-methyl-butyramide], the IC50 (usually the concentration that gives 50% inhibition) in data set [1] (read-out: HCT 116 IC50 (nM)) is 0.84 nM. In addition, the MTD (usually the largest dose that counted as tolerated) in data set [2] was found to be 2 mg/kg. Regarding `CCC(C)C(C(CC(=O)N1CCCC1C(SC)C(C)C(=O)NCCc1cccc(O)c1)OC)N(C)C(=O)C(NC(=O)C(C(C)C)N(C)C)C(C)C` (single isomer, unassigned) [N-(1-{[1-sec-Butyl-4-(2-{2-[2-(3-hydroxy-phenyl)-ethylcarbamoyl]-1-methylsulfanyl-propyl}-pyrrolidin-1-yl)-2-methoxy-4-oxo-butyl]-methyl-carbamoyl}-2-methyl-propyl)-2-dimethylamino-3-methyl-butyramide], the concentration for half-maximal inhibition (IC50) in data set [1] (read-out: HCT 116 IC50 (nM)) came to 0.19 nM. The MTD in data set [2] was found to be 2 mg/kg. `CCC(C)C(C(CC(=O)N1CCCC1C(SC)C(C)C(=O)N(C)CCc1cccc(O)c1)OC)N(C)C(=O)C(NC(=O)C(C(C)C)N(C)C)C(C)C` (single isomer, unassigned) [N-[1-({1-sec-Butyl-4-[2-(2-{[2-(3-hydroxy-phenyl)-ethyl]-methyl-carbamoyl}-1-methylsulfanyl-propyl)-pyrrolidin-1-yl]-2-methoxy-4-oxo-butyl}-methyl-carbamoyl)-2-methyl-propyl]-2-dimethylamino-3-methyl-butyramide]: in data set [1] (setting [3]), the IC50 is 0.66 nM. For the same molecule, the MTD in data set [2] stood at 8 mg/kg. `CCSC(C(C)C(=O)N(C)CCc1cccc(O)c1)C1CCCN1C(=O)CC(OC)C(C(C)CC)N(C)C(=O)C(NC(=O)C(C(C)C)N(C)C)C(C)C` (single isomer, unassigned) [N-[1-({1-sec-Butyl-4-[2-(1-ethylsulfanyl-2-{[2-(3-hydroxy-phenyl)-ethyl]-methyl-carbamoyl}-propyl)-pyrrolidin-1-yl]-2-methoxy-4-oxo-butyl}-methyl-carbamoyl)-2-methyl-propyl]-2-dimethylamino-3-methyl-butyramide]: the IC50 in data set [1] (setting [3]) was 0.11 nM. Besides, the MTD in data set [2] stood at 8 mg/kg. For `CCC(C)C(C(CC(=O)N1CCCC1C(CC(=O)NCCc1ccccc1)S(C)(=O)=O)OC)N(C)C(=O)C(NC(=O)C(NC)C(C)C)C(C)C` (stereo not shown) [N-[1-({1-sec-Butyl-4-[2-(1-methanesulfonyl-2-phenethylcarbamoyl-ethyl)-pyrrolidin-1-yl]-2-methoxy-4-oxo-butyl}-methyl-carbamoyl)-2-methyl-propyl]-3-methyl-2-methylamino-butyramide] the same measures were 0.77 nM and 18 mg/kg.

For `CCC(C)C(C(CC(=O)N1CCCC1C(CC(=O)NCCc1ccccc1)SC)OC)N(C)C(=O)C(NC(=O)C(NC)C(C)C)C(C)C` (stereo not shown) [N-[1-({1-sec-Butyl-2-methoxy-4-[2-(1-methylsulfanyl-2-phenethylcarbamoylethyl)pyrrolidin-1-yl]-4-oxo-butyl}-methyl-carbamoyl)-2-methyl-propyl]-3-methyl-2-methylamino-butyramide], the IC50 in data set [1] (setting [3]) was 0.12 nM. For the same molecule, the MTD in data set [2] is 14 mg/kg. Consider `CCC(C)C(C(CC(=O)N1CCCC1C(CC(=O)NCCc1ccc(OC)c(OC)c1)SC)OC)N(C)C(=O)C(NC(=O)C(C(C)C)N(C)C)C(C)C` (stereo not shown) [N-(1-{[1-sec-Butyl-4-(2-{2-[2-(3,4-dimethoxy-phenyl)-ethylcarbamoyl]-1-methylsulfanyl-ethyl}-pyrrolidin-1-yl)-2-methoxy-4-oxo-butyl]-methyl-carbamoyl}-2-methyl-propyl)-2-dimethylamino-3-methyl-butyramide], for which, in data set [1] (setting [3]), the concentration for half-maximal inhibition (IC50) stood at 0.91 nM. Same read-out and setting: with `CCSC(CC(=O)NCCc1ccccc1)C1CCCN1C(=O)CC(OC)C(C(C)CC)N(C)C(=O)C(NC(=O)C(C(C)C)N(C)C)C(C)C` (stereo not shown) [N-[1-({1-sec-Butyl-4-[2-(1-ethylsulfanyl-2-phenethylcarbamoyl-ethyl)-pyrrolidin-1-yl]-2-methoxy-4-oxo-butyl}-methyl-carbamoyl)-2-methyl-propyl]-2-dimethylamino-3-methyl-butyramide] the figure was 0.78 nM. Consider `CCC(C)C(C(CC(=O)N1CCCC1C(CC(=O)N(C)CCc1ccccc1)SC)OC)N(C)C(=O)C(NC(=O)C(C(C)C)N(C)C)C(C)C` (stereo not shown) [N-{1-[(1-sec-Butyl-2-methoxy-4-{2-[2-(methyl-phenethyl-carbamoyl)-1-methylsulfanyl-ethyl]-pyrrolidin-1-yl}-4-oxo-butyl)-methyl-carbamoyl]-2-methyl-propyl}-2-dimethylamino-3-methyl-butyramide], for which the IC50 in data set [1] (setting [3]) worked out at 0.87 nM.

`C=CCSC(CC(=O)NCCc1ccccc1)C1CCCN1C(=O)CC(OC)C(C(C)CC)N(C)C(=O)C(NC(=O)C(C(C)C)N(C)C)C(C)C` (stereo not shown) [N-[1-({4-[2-(1-Allylsulfanyl-2-phenethylcarbamoyl-ethyl)-pyrrolidin-1-yl]-1-sec-butyl-2-methoxy-4-oxo-butyl}-methyl-carbamoyl)-2-methyl-propyl]-2-dimethylamino-3-methyl-butyramide]: in data set [1] (setting [3]), the IC50 is 0.55 nM. As for `CCC(C)C(C(CC(=O)N1CCCC1C(CC(=O)NCCc1ccccn1)SC)OC)N(C)C(=O)C(NC(=O)C(C(C)C)N(C)C)C(C)C` (stereo not shown) [N-{1-[(1-sec-Butyl-2-methoxy-4-{2-[1-methylsulfanyl-2-(2-pyridin-2-yl-ethylcarbamoyl)-ethyl]-pyrrolidin-1-yl}-4-oxo-butyl)-methyl-carbamoyl]-2-methyl-propyl}-2-dimethylamino-3-methyl-butyramide], the IC50 in data set [1] (setting [3]) was found to be 0.9 nM.

For the molecule `CCC(C)C(C(CC(=O)N1CCCC1C(CC(=O)NCCc1cccs1)SC)OC)N(C)C(=O)C(NC(=O)C(C(C)C)N(C)C)C(C)C` (stereo not shown) [N-{1-[(1-sec-Butyl-2-methoxy-4-{2-[1-methylsulfanyl-2-(2-thiophen-2-yl-ethylcarbamoyl)-ethyl]-pyrrolidin-1-yl}-4-oxo-butyl)-methyl-carbamoyl]-2-methyl-propyl}-2-dimethylamino-3-methyl-butyramide], the IC50 in data set [1] (setting [3]) worked out at 0.5 nM.

As to `CCC(C)C(C(CC(=O)N1CCCC1C(CC(=O)NCCc1ccccc1)S(C)(=O)=O)OC)N(C)C(=O)C(NC(=O)C(C(C)C)N(C)C)C(C)C` (stereo not shown) [N-[1-({1-sec-Butyl-4-[2-(1-methanesulfonyl-2-phenethylcarbamoyl-ethyl)-pyrrolidin-1-yl]-2-methoxy-4-oxo-butyl}-methyl-carbamoyl)-2-methyl-propyl]-2-dimethylamino-3-methyl-butyramide], in data set [1] (setting [3]), the IC50 came out at 0.44 nM.

Consider `CCC(C)C(C(CC(=O)N1CCCC1C(CC(=O)NCCc1cccc(O)c1)SCC(=O)N(C)C)OC)N(C)C(=O)C(NC(=O)C(C(C)C)N(C)C)C(C)C` (stereo not shown) [N-(1-{[1-sec-Butyl-4-(2-{1-dimethylcarbamoylmethylsulfanyl-2-[2-(3-hydroxy-phenyl)-ethylcarbamoyl]-ethyl}-pyrrolidin-1-yl)-2-methoxy-4-oxo-butyl]-methyl-carbamoyl}-2-methyl-propyl)-2-dimethylamino-3-methyl-butyramide], for which the IC50 in data set [1] (setting [3]) was 1.8 nM.

On to `CCC(C)C(C(CC(=O)N1CCCC1C(CC(=O)NCCc1ccccc1)SC(C)C)OC)N(C)C(=O)C(NC(=O)C(NC)C(C)C)C(C)C` (stereo not shown) [N-[1-({1-sec-Butyl-4-[2-(1-isopropylsulfanyl-2-phenethylcarbamoyl-ethyl)-pyrrolidin-1-yl]-2-methoxy-4-oxo-butyl}-methyl-carbamoyl)-2-methyl-propyl]-3-methyl-2-methylamino-butyramide], for which the IC50 in data set [1] (setting [3]) was 0.65 nM. Further, the MTD in data set [2] was found to be 10 mg/kg.

The values are drawn from patent US6737409B2, “Dolastatin 10 derivatives” (Hoffmann-La Roche Inc., priority 2001, dated 2004).
